From ChEMBL document CHEMBL4602709 (ACS Med Chem Lett, 2020)

How the values were obtained:
[1] = target: T1, Mitogen-activated protein kinase kinase kinase kinase 3 (Homo sapiens) (UniProt Q8IVH8); assay: Inhibition of MAP4K3 (unknown origin) assessed as residual activity at 10 uM incubated for 5 mins in presence of [gamma-33ATP] by scintillation counting based radiometry assay relative to control
T1 sequence (whole entry): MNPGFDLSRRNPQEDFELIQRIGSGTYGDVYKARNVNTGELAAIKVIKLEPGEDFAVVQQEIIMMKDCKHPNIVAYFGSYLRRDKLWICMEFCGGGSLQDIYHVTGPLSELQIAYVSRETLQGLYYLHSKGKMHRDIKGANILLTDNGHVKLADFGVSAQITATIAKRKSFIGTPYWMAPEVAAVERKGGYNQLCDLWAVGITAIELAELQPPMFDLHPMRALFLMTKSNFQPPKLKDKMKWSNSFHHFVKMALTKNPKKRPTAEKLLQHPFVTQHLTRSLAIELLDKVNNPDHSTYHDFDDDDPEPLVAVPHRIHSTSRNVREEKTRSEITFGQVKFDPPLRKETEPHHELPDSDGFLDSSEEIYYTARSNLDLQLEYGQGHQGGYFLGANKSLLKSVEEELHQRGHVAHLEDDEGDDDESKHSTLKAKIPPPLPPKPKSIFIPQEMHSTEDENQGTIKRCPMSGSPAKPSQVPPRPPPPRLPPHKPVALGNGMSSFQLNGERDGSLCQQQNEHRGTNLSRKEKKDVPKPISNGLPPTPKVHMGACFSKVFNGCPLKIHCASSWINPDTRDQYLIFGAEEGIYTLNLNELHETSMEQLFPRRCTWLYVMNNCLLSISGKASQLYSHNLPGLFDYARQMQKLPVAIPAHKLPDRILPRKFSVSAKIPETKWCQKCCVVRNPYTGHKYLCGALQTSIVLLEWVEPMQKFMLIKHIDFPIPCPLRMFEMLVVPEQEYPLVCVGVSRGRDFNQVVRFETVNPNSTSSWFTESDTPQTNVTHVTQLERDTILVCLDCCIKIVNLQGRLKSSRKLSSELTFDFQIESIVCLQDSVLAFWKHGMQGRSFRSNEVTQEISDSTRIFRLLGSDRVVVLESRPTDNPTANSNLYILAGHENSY

[2] = target: Platelet-derived growth factor receptor alpha (Homo sapiens, UniProt P16234); assay: Inhibition of PDGFRalpha (unknown origin) assessed as residual activity at 10 uM incubated for 5 mins in presence of [gamma-33ATP] by scintillation counting based radiometry assay relative to control
Sequence of Platelet-derived growth factor receptor alpha (P16234 whole entry): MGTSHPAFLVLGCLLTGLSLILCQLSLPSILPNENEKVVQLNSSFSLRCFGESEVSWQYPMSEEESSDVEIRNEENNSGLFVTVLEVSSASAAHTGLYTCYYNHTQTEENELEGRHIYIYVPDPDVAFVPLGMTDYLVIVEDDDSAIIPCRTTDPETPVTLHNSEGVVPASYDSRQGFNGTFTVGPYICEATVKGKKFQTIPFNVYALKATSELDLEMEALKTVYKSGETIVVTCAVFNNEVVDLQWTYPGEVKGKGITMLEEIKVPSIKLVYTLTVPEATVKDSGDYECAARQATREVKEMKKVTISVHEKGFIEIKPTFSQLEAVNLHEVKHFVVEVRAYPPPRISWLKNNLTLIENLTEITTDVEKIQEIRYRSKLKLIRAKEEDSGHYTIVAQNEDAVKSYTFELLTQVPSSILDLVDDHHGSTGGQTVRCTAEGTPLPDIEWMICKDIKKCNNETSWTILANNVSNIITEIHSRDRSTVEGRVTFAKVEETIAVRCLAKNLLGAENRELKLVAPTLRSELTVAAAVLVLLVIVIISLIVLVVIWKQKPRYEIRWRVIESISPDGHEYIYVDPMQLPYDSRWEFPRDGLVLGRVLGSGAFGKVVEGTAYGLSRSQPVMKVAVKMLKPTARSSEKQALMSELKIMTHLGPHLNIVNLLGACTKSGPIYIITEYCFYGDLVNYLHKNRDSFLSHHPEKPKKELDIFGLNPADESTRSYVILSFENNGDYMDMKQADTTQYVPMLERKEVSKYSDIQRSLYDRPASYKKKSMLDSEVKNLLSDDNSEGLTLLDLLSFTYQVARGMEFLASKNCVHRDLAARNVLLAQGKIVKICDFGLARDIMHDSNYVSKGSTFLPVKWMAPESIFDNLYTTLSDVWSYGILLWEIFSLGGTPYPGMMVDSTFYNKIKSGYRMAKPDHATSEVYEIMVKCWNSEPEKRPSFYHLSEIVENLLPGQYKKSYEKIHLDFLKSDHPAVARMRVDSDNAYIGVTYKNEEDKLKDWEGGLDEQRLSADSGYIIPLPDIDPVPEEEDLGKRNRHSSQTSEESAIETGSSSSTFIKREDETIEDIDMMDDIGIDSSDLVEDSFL

[3] = target: T2, Ephrin type-B receptor 2 (Homo sapiens) (UniProt P29323); assay: Inhibition of EPHB2 (unknown origin) assessed as residual activity at 10 uM incubated for 5 mins in presence of [gamma-33ATP] by scintillation counting based radiometry assay relative to control
T2 sequence (whole entry): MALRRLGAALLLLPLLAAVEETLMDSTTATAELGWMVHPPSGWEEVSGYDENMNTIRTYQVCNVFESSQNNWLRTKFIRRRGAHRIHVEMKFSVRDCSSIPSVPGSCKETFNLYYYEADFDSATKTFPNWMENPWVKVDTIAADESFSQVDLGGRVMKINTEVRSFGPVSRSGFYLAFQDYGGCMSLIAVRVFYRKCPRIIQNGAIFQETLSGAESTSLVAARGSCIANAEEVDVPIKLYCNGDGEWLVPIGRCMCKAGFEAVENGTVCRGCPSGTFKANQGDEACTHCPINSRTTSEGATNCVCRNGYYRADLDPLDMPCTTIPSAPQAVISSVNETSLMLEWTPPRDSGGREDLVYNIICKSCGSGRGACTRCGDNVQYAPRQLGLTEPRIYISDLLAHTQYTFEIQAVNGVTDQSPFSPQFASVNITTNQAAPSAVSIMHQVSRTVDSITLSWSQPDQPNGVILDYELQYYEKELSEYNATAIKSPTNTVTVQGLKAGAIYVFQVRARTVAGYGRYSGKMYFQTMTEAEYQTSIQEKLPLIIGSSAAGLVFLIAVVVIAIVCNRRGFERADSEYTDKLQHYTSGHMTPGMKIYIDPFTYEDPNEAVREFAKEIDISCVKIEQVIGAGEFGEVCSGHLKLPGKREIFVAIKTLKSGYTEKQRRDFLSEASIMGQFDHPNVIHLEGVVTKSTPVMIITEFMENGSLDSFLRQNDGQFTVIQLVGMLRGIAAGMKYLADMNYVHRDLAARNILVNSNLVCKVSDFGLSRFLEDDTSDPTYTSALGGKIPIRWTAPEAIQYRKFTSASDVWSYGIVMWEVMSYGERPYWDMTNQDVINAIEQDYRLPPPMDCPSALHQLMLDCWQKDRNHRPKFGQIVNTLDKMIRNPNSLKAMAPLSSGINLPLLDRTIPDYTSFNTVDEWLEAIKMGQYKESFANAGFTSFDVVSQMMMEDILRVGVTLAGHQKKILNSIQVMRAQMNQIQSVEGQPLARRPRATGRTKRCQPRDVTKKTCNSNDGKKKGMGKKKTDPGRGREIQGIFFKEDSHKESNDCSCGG

[4] = Metabolic stability in mouse liver microsomes assessed as half life at 3 uM measured up to 30 mins in presence of NADPH by […] analysis; assay type: ADME, Microsome
[5] = target: Ephrin type-A receptor 4 (Homo sapiens) (UniProt P54764); assay: Inhibition of EPHA4 (unknown origin) assessed as residual activity incubated for 5 mins in presence of [gamma-33ATP] by scintillation counting based radiometry assay
Sequence of Ephrin type-A receptor 4 (Homo sapiens) (P54764 whole entry, looked up): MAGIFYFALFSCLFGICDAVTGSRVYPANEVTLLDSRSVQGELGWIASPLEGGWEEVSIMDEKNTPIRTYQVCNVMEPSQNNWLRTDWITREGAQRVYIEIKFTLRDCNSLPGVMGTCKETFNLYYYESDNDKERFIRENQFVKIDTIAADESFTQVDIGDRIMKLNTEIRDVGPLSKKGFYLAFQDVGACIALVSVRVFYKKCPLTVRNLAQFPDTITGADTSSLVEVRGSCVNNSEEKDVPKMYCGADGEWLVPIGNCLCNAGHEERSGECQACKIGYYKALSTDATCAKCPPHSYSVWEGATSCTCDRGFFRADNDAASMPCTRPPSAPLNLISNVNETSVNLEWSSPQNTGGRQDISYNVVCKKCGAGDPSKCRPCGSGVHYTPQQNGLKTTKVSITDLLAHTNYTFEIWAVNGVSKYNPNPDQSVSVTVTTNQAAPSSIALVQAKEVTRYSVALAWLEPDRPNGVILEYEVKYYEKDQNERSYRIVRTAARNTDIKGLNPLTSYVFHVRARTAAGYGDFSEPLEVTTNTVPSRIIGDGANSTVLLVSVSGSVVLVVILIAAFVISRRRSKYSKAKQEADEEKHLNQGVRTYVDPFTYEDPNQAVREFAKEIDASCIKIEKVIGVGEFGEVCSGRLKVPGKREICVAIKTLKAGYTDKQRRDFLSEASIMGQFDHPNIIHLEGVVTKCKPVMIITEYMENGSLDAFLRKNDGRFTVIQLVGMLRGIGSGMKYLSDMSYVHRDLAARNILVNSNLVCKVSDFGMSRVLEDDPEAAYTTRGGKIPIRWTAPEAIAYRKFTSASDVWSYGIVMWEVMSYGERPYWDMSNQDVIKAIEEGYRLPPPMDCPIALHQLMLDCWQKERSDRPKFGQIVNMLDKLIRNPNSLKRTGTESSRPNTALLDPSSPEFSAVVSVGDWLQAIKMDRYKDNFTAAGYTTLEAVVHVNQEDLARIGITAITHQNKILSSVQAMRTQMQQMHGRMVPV

[6] = target: Serine/threonine-protein kinase Nek6 (Homo sapiens, UniProt Q9HC98); assay: Inhibition of NEK6 (unknown origin) assessed as residual activity incubated for 5 mins in presence of [gamma-33ATP] by scintillation counting based radiometry assay
Sequence of Serine/threonine-protein kinase Nek6 (Q9HC98 whole entry): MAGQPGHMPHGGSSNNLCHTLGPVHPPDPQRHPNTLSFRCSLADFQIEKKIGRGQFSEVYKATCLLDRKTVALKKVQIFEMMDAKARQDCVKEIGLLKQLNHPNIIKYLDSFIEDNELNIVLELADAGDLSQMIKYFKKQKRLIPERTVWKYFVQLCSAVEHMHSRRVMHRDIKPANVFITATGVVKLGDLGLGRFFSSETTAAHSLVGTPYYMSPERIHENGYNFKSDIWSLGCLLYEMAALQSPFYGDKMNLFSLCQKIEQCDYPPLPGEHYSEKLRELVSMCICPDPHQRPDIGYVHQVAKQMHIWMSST

[7] = target: Proto-oncogene tyrosine-protein kinase Src (Homo sapiens, UniProt P12931); assay: Inhibition of SRC (unknown origin) assessed as residual activity at 10 uM incubated for 5 mins in presence of [gamma-33ATP] by scintillation counting based radiometry assay relative to control
Sequence of Proto-oncogene tyrosine-protein kinase Src (P12931 2-536 limits assumed): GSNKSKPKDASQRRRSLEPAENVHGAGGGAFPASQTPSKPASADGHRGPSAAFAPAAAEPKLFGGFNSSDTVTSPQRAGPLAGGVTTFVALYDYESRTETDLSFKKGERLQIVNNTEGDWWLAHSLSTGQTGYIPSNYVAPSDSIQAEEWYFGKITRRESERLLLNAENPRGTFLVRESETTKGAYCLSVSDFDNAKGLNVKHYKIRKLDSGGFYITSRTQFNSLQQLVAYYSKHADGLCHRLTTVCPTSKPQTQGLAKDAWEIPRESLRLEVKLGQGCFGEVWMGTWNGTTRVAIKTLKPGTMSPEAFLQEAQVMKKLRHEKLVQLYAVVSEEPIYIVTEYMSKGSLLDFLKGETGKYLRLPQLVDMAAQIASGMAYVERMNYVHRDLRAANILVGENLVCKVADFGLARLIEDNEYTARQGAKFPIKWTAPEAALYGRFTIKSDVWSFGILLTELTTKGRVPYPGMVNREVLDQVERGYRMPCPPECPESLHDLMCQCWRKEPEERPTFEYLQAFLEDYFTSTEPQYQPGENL

SMILES | Activity [1] [%] | Activity [2] [%] | Activity [3] [%] | half-life at 3 µM [4] [min] | IC50 [5] [nM] | IC50 [6] [nM] | Activity [7] [%]
Cc1ccc(C(=O)Nc2ccc(CN3Cc4cn[nH]c4C3)c(Cl)c2)cc1C#Cc1cnc2cccnn12 | 14 | 16 | 1 | 16.8 | 84.6 | 5350 | 15
Cc1cn(-c2cc(NC(=O)c3ccc(C)c(Nc4nccc(-c5cccnc5)n4)c3)cc(C(F)(F)F)c2)cn1 [NILOTINIB] | 107 | 56 | 25 | 7.89 | – | – | 74
